This is an account of results in patent publication US20100063085A1, “METHOD OF TREATING LEARNING IMPAIRMENT IN DOWN'S SYNDROME SUBJECTS” (University Court of The University of Dundee, priority 2008, published 2010).

One assay addresses DYRK3 (Homo sapiens, UniProt O43781). The experiment in a line: DYRK3 33P kinase assay (analogous to DYRK1a). The assay is classed as biochemical. As to conditions: ATP at 50 μM; half log dilutions starting at 100 μM. How it is done:
(§1) DYRK1A (5-20 mU of diluted in 50 mM Tris pH 7.5, 0.1 mM EGTA) was assayed against Woodtide ([…]) in a final volume of 25.5 μl containing 50 mM Tris pH 7.5, 0.1 mM EGTA, 350 uM substrate peptide, 10 mM magnesium acetate and 0.5 μl inhibitor and incubated at room temperature for 5 mins, followed by the addition of 0.05 mM [33P-gamma-ATP] (50-1000 cpm/pmole) and incubated for 30 mins at room temperature. Assays were stopped by addition of 5 μl of 0.5 M (3%) orthophosphoric acid then harvested onto P81 Unifilter plates with a wash buffer of 50 mM orthophosphoric acid. Filterplates were then air dried overnight. 10 μl of Microscint O was added per well prior to counting for radioactivity.

A further assay has as its target DYRK2 (Homo sapiens, UniProt Q92630). Briefly: DYRK2 33P kinase assay (analogous to DYRK1a). The assay is classed as biochemical. As to conditions: ATP at 50 μM; half log dilutions starting at 100 μM. On the procedure: as §1
DYR2 and DYRK3 were assayed in an analogous manner to that described above for DYRK1a.

Structures are written as SMILES.

DYRK3, sequence (O43781 whole entry, species assumed): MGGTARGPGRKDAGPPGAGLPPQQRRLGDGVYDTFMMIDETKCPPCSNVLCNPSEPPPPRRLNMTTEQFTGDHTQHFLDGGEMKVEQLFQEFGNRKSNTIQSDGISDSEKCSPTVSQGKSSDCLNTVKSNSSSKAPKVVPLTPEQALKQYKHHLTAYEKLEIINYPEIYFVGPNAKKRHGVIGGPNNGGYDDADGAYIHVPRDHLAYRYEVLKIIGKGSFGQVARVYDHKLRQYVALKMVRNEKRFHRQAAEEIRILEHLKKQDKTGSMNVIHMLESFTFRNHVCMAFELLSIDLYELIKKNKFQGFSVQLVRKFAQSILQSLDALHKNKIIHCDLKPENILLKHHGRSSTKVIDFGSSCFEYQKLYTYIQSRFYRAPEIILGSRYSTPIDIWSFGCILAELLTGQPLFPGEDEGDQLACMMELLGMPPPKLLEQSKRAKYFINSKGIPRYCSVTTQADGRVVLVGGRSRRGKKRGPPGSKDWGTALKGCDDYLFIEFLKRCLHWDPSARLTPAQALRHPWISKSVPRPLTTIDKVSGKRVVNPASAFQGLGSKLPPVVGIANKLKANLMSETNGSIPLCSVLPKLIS
DYRK2, sequence (Q92630 whole entry, species assumed): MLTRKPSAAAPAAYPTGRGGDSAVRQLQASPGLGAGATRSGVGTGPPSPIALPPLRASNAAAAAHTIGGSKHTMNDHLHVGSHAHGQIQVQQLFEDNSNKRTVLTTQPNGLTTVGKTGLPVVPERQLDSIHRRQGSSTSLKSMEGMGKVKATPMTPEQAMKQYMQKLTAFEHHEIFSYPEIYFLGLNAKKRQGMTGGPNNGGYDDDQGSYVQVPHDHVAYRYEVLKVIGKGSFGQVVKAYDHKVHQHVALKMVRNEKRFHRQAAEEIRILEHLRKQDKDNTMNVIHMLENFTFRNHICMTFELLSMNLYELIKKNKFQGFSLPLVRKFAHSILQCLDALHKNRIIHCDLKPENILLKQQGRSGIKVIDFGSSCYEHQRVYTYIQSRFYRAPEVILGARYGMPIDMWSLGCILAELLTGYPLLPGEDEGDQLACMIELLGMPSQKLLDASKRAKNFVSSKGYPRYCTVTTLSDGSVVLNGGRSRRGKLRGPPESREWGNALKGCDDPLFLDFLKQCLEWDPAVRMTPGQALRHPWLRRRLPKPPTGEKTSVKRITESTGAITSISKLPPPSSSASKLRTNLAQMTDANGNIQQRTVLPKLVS

With `COc1ccc2c(c1)[nH]c1c(C)nccc12` [Harmine], the 50% inhibitory concentration (IC50) on DYRK3 was 800 nM; against DYRK2 it was 900 nM.
